# Test results as given in patent US10512624B2, “Long-chain amphipathic dicarboxylic acids for treatment of diabetes type-1” (Syndromex Ltd., priority 2016, dated 2019).
# Read-outs that look alike come from different tables or passages of the source.
# Assays:
# NOD mice [1] = assay: IPGTT in pre-diabetic NOD mice; format: in vivo, mouse; settings: 14-week and 24-week old NOD mice
# Description: Overnight fasted NOD mice were injected i.p (2 gr/kg bw) with standard 20% dextrose solution. Tail vein blood was sampled on 0, 15, 30, 60, 90 and 120 minutes. Blood glucose was measured by glucometer. Plasma insulin prior to and 30 min following glucose injection was measured using Ultrasensitive Mouse Insulin ELISA kit (Crystal Chem).
# [2] = Plasma MEDICA16αα exposure in STZ diabetic rats (LC/MS); format: in vivo; settings: Sprague-Dawley, rat, po, 15 mg/kg, oral 15 mg/kg b.i.d, data not shown
# Description: Plasma aliquots of 100 μl were vortex-mixed with 50 μl of formic acid:methanol (1:1 v/v) solution containing an internal standard, extracted into n-hexane, centrifuged, and the hexane layer was evaporated to dryness. The residue was reconstituted in the mobile phase and injected into the LC/MS system [Waters Micromass ZQ mass spectrometer (Waters Co.)]. LC/MS conditions were as follows:)(Bridge MS; RP8 column, 3.5 μm, 2.1×100 mm column (Waters Co.); column temperature was 35° C.; isocratic mobile phase, methanol:water (82:18 v/v) containing 0.1% formic acid, at a flow rate of 0.2 ml/min; detector tuned to 500 L/hr nitrogen flow; source temperature; 400° C.; cone voltage 30V; ionization mode ESI+; 365 and 393 m/z for MEDICA16αα and the internal standard, respectively. Calibration curves were linear and validated in the 100 ng/ml to 5000 ng/ml range, with accuracy of 7-9% relative error and precision of 8-10% relative standard deviation.
# [3] = system: SHAM (control) non-diabetic rats; assay: Fasting blood glucose in SHAM (control) non-diabetic rats; format: in vivo, rat; settings: oral 15 mg/kg b.i.d
# Description: SHAM (control) rats were injected with 0.1 M of cold citrate buffer (pH 4.5). STZ diabetic or SHAM rats were dosed twice daily by gavage (orally) with 1% CMC (Sigma Aldrich C5678), or with HOOC—C(CH3)2—(CH2)12—C(CH3)2—COOH (2,2,15,15-tetramethylhexadecane-1,16-dioic acid) also termed herein “MEDICA16αα”, “Medica16αα” or M16αα(15 mg/kg body weight) suspended in 1% CMC, or injected intraperitoneal (i.p.) with Neutral Protamine Hagedorn (NPH) insulin (3 u/kg body weight b.i.d), as indicated.
# Tail vein FBG was verified daily by a glucometer (Glucometer®, Accu-Check® Performa, Roche Diagnostics). Urine secretion, food and water consumption were measured in standard metabolic cages (Tecniplast™ Metabolic Cage Systems for Rodents) for 48 hour periods. Samples were collected and recorded every 12 hour.
# NOD mice [4] = assay: Prevention of overt type 1 diabetes (T1D) in NOD mice; format: in vivo, mouse
# Description: NOD/LtJ mice (Harlan Laboratories) were bred in-house under pathogen-free conditions. Female mice (3-week old) were fed ad libitum from weaning on with standard chow (Harlan Teklad 2018), or with MEDICA16αα diet (0.04% (w/w) MEDICA16αα mixed in Teklad 2018, yielding a dose of 40 mg MEDICA16αα per kg body weight per day). Mice were monitored weekly for body weight and food consumption. Tail vein blood glucose was verified weekly from week 10th on, on a set day and hour. Mice were considered diabetic if presenting non-fasting blood glucose levels >300 mg/dl for 3 consecutive days. Diabetic mice were euthanized, and blood and tissues were sampled for further studies.
# NOD mice [5] = assay: Hyperinsulinemic-euglycemic clamp in pre-diabetic NOD mice; format: in vivo, mouse
# Description: Clamps were carried out according to Vanderbilt Mouse Metabolic Phenotyping Center, Vanderbilt University School of Medicine protocol (28), with minor modifications, using HPLC-purified ^3H-glucose (specific activity 13.5 Ci/mmol, MT-914 Moravek Biochemicals, priming dose of 1 μC followed by continuous infusion of 0.05 μCi·min-1 for a 90 min equilibration period), HumulinR insulin (Eli Lilly, 4 mU·kg-1. min-1), and 10% glucose solution.
# Clamps were carried out in conscious 12-14-week old NOD female mice fasted for 3 hours, 3 days following catheters' insertion. […] Plasma glucose specific activity was verified on 80, 90, 100, and 120 min following insulin infusion. On 120 min, 12-μCi bolus of ^14C-2-deoxyglucose (DG) (specific activity 274.6 mCi/mmol, MC-392 Moravek Biochemicals) was injected, followed by blood sampling on 122, 125, 130, 135, and 145 min, to determine blood glucose and 2-deoxyglucose activity.
# Upon sacrifice, gastrocnemius, superficial vastus lateralis, and soleus muscles were removed, immediately frozen in liquid nitrogen, and stored at −70° C. until further analysis. Glucose appearance (Ra) and disappearance (Rd) were determined using Steele non-steady-state equations. Endogenous glucose production (EndoRt) was determined by subtracting the glucose infusion rate (GIR) from total glucose turnover (Rt). Glucose metabolic index in muscle (Rg) was calculated by the equation:
# [formula] where 2[^14C]DGPtissue is the 2[^14C]DG radioactivity in muscle normalized to tissue weight (dpm/g tissue), AUC 2[^14C]DGplasma is the area under the plasma 2[^14C]DG disappearance curve (dpm·min·m1-1), and [arterial glucose] is the average blood glucose (mmol/1) during the 80-120 min clamp period. Immuno-Histochemistry
smiles,measurement,setting,value
"CC(C)(CCCCCCCCCCCCC(C)(C)C(=O)O)C(=O)O [MEDICA16αα, 2,2,15,15-tetramethylhexadecane-1,16-dioic acid]",pre-diabetic IPGTT profile,NOD mice [1],normalizing
same,glucose-stimulated plasma insulin,NOD mice [1]; first 30 min of IPGTT,remained unaffected
same,concentration at 10 days,"[2]; read-out: plasma MEDICA16αα exposure, non-responsive rats",26 ± 8.7 ng/mL
same,concentration at 10 days,"[2]; read-out: plasma MEDICA16αα exposure, responsive rats",22.5 ± 4.4 ng/mL
same,hypoglycemia,[3],did not result in hypoglycemia
same,decrease in body weight gain,"NOD mice [4]; NOD mice, 40 mg/kg per day in feed",40%
same,NOD mice in which development of T1D was delayed or prevented,"NOD mice [4]; oral in feed 40 mg/kg per day from weaning, 21 weeks (until week 26), 32% in non-treated group",71%
same,clamped plasma insulin,NOD mice [5],decrease
same,deoxyglucose uptake into soleus and gastrocnemius muscles,NOD mice [5],insulin-induced deoxyglucose uptake
same,endogenous glucose production,NOD mice [5],insulin-induced decrease
same,increase in glucose infusion rate (GIR),NOD mice [5],37%
same,total body glucose turnover,NOD mice [5],increase
